Assays:
Assay in all cases: relative viability (nuclei count vs DMSO), 5 days (fraction); higher = more cells survive
[1] = compound: CC1=C(N=C(N=C1N)[C@H](CC(=O)N)NC[C@@H](C(=O)N)N)C(=O)N[C@@H]([C@H](C2=CN=CN2)OC3C(C(C(C(O3)CO)O)O)OC4C(C(C(C(O4)CO)O)OC(=O)N)O)C(=O)N[C@H](C)[C@H]([C@H](C)C(=O)N[C@@H]([C@@H](C)O)C(=O)NCCC5=NC(=CS5)C6=NC(=CS6)C(=O)NCCC[S+](C)C)O [Bleomycin] + C[C@]1(O)C[C@@H](c2nc(-c3ccc4ccc(-c5ccccc5)nc4c3)c3c(N)nccn32)C1 [Linsitinib] (partner 1 µM); settings: main component drawn
Outline: (§1)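 Lung cancer cell lines were seeded in 1536-well plates and dosed by pin tool the next day, with either a single drug or a fixed anchor-drug dose combined with five library-drug doses (not always all listed) spaced in √10 steps. Five days later, one step fixed the cells and stained their nuclei (final 0.05% Triton X-100, 1% formaldehyde, 1 ug/ml Hoechst), and nuclei were counted on 4× images. Relative viability is the nuclei count in treated wells divided by the count in vehicle wells, and each value is the median of duplicate plates.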

[2] = compound: COc1cc([C@@H]2c3cc4c(cc3[C@@H](O[C@@H]3O[C@@H]5CO[C@@H](C)O[C@H]5[C@H](O)[C@H]3O)[C@H]3COC(=O)[C@H]23)OCO4)cc(OC)c1O [Etoposide] + C[C@@H](Oc1cc(-c2cnn(C3CCNCC3)c2)cnc1N)c1c(Cl)ccc(F)c1Cl [Crizotinib] (partner 1 µM)
Outline: as §1

[3] = compound: COc1cc([C@@H]2c3cc4c(cc3[C@@H](O[C@@H]3O[C@@H]5CO[C@@H](C)O[C@H]5[C@H](O)[C@H]3O)[C@H]3COC(=O)[C@H]23)OCO4)cc(OC)c1O [Etoposide] + Nc1nc2[nH]cc(CCc3ccc(C(=O)N[C@@H](CCC(=O)O)C(=O)O)cc3)c2c(=O)[nH]1 [Pemetrexed] (partner 0.2 µM)
Outline: as §1

[4] = compound: COc1cc([C@@H]2c3cc4c(cc3[C@@H](O[C@@H]3O[C@@H]5CO[C@@H](C)O[C@H]5[C@H](O)[C@H]3O)[C@H]3COC(=O)[C@H]23)OCO4)cc(OC)c1O [Etoposide] + O=C(c1cc(Cc2n[nH]c(=O)c3ccccc23)ccc1F)N1CCN(C(=O)C2CC2)CC1 [Olaparib] (partner 8 µM)
Outline: as §1

Row | Cell Line | relative viability ([1]; first compound 0.01 µM) | relative viability ([1]; first compound 0.03162 µM) | relative viability ([1]; first compound 0.1 µM) | relative viability ([1]; first compound 0.3162 µM) | relative viability ([1]; first compound 1 µM) | relative viability ([2]; first compound 0.01 µM) | relative viability ([2]; first compound 0.03162 µM) | relative viability ([2]; first compound 0.1 µM) | relative viability ([2]; first compound 0.3162 µM) | relative viability ([2]; first compound 1 µM) | relative viability ([3]; first compound 0.01 µM) | relative viability ([3]; first compound 0.03162 µM) | relative viability ([3]; first compound 0.1 µM) | relative viability ([3]; first compound 0.3162 µM) | relative viability ([3]; first compound 1 µM) | relative viability ([4]; first compound 0.01 µM) | relative viability ([4]; first compound 0.03162 µM) | relative viability ([4]; first compound 0.1 µM) | relative viability ([4]; first compound 0.3162 µM) | relative viability ([4]; first compound 1 µM)
1 | COR-L 105 | 0.765 | 0.798 | 0.708 | 0.393 | 0.317 | 0.675 | 0.51 | 0.709 | 0.644 | 0.543 | 1.03 | 1.02 | 1.27 | 0.836 | 0.844 | 0.719 | 0.859 | 0.701 | 0.572 | 0.654
2 | SK-LU-1 | 0.821 | 0.921 | 0.929 | 0.471 | 0.39 | 0.778 | 0.902 | 0.614 | 0.387 | 0.327 | 0.991 | 0.863 | 0.817 | 0.363 | 0.282 | 0.407 | 0.511 | 0.348 | 0.238 | 0.193
3 | LXF-289 | 0.899 | 0.91 | 0.839 | 0.389 | 0.186 | 0.851 | 0.824 | 0.836 | 0.511 | 0.251 | 0.961 | 0.952 | 1.04 | 0.788 | 0.285 | 1.1 | 1.07 | 0.954 | 0.234 | 0.1
4 | PC-3 [JPC-3] | 0.865 | 0.944 | 0.847 | 0.723 | 0.53 | 0.955 | 1.01 | 1.05 | 0.969 | 0.722 | 1.1 | 1.23 | 1.09 | 0.977 | 0.706 | 0.992 | 0.928 | 1.14 | 1.07 | 0.794
5 | NCI-H661 | 0.563 | 0.423 | 0.312 | 0.221 | 0.217 | 1.03 | 0.981 | 0.997 | 0.845 | 0.736 | 0.863 | 0.984 | 0.849 | 0.858 | 0.625 | 0.776 | 0.819 | 0.686 | 0.463 | 0.471
6 | NCI-H1666 | 0.677 | 0.543 | 0.486 | 0.335 | 0.269 | 0.906 | 0.904 | 0.68 | 0.36 | 0.301 | 0.832 | 0.866 | 0.923 | 0.631 | 0.563 | 0.702 | 0.642 | 0.758 | 0.529 | 0.497
7 | NCI-H2085 | 0.678 | 0.823 | 0.632 | 0.346 | 0.363 | 0.91 | 0.871 | 0.827 | 0.5 | 0.326 | 0.769 | 0.95 | 0.803 | 0.907 | 0.378 | 0.755 | 0.731 | 0.746 | 0.375 | 0.3

Source: the supplement of paper PMC10307832
